Common to all, as to format: functional, cell-based
Common to all, as to conditions: HCT-116, 72 h

The test system of experiment [1] is HCT-116. The experiment is described as follows: Antiproliferative activity against human HCT116 cells after 72 hrs by Cell titer Glo assay. (Cellular ATP, detected with luciferase, serves as a proxy for viable cell number.)
In experiment [2] the test system is HCT-116. Put plainly: Antiproliferative activity against IC95 biaryl selected human HCT116 cells expressing Kinesin-like protein KIF11 D130V mutant after 72 hrs by Cell titer Glo assay.
Experiment [3] concerns HCT-116. Put plainly: Antiproliferative activity against 3x IC95 biaryl selected human HCT116 cells expressing Kinesin-like protein KIF11 D130V mutant after 72 hrs by Cell titer Glo assay.
In experiment [4] the test system is HCT-116. Put plainly: Antiproliferative activity against 3x IC95 biaryl selected drug-resistant against human HCT116 cells after 72 hrs by Cell titer Glo assay.

SMILES strings stand for the structures.

As a reminder, the IC50 is the point on the concentration scale where inhibition reaches its midpoint. A higher IC50 goes with weaker potency in that assay. With `O=C1CCc2cc(-c3ccc(C(F)(F)F)cc3)ccc2N1`, the IC50 in experiment [1] was determined as 36 nM; in experiment [2] it was 3.3 nM; in experiment [3] it was 6.9 nM; in experiment [4] it was 2090 nM.

(Values after ChEMBL document CHEMBL1221208, “ATP-competitive inhibitors of the mitotic kinesin KSP that function via an allosteric mechanism” (Nat Chem Biol, 2007).)
